Reference: patent US20040259942A1, “Modulation of stat activity” (priority 2001, published 2004)

Experiments:
Assay type in all cases: cell-based, human
BR293 cells [1] = experiment: Cell proliferation assay (cell counting); conditions: for growth of cultured cells (confluence): full medium, 48 h, 100 μM (FIG. 16a)
Method: Equal numbers of BR293 and MDA-MB-468 cells were seeded in MEM containing 10% FCS into 10 cm dishes. […]. For the 48 time points, fresh medium containing the appropriate inhibitor was applied to the cells after 24 hours. Controls were allowed to grow for 48 hours in the absence of inhibitor. Thereafter, all the cells were washed twice with ice cold PBS, harvested and counted under a phase-contrast microscope. Values are expressed as averages+S.D. (n=3).
Equal numbers of BR293, MCF-10F, MCF-7, MDA-MB-468, HKEK293 and COS1 cells were seeded in the appropriate growth medium into 10 cm dishes. Cells were allowed to grow in the presence of various concentrations of OdDHL or OHHL for 24 or 48 hours. For the 48-hour time points, fresh medium containing the appropriate inhibitor was applied to the cells after 24 hours. Controls were allowed to grow for 48 hours in the absence of inhibitor. Thereafter, all the cells were washed twice with ice cold PBS, harvested and counted under a phase-contrast microscope. Values are expressed as averages ±S.D. (n=3).

BR293 cells [2] = experiment: DAPI staining, fluorescence microscopy (apoptosis); conditions: full medium (10% FCS); 24 h
Method: OdDHL blocks BC cell oroliferation and induces apoptosis. BR293 cells were grown in full medium (10% FCS) in the absence or presence of OdDHL or the control OHHL. After 24 h, cell were harvested, stained with DAPI and examined by fluorescence microscopy.

MDA-MB-468 cells = experiment: DAPI staining, confocal microscopy (apoptosis); conditions: growing cells treated; 100 μM (FIG. 17)
Method: OdDHL induces apoptosis of BC cells (a) MCF-7 cells were cultured in full medium alone or in the presence of 1001M OdDHL or 100 μM OHHL. […] Left-hand panels show DAPI, right-hand panels show the corresponding phase contrast and middle panels the image overlays. (b) MDA-MB-468 cells were cultured in full medium alone or in the presence of 100 μM OdDHL or 100 μM OHHL. […] (c) BR293, MCF-7 and MDA-MD-468 cells were cultured in full medium alone (lanes 1, 3, 5) or in the presence of 100 μM OdDHL (lanes 2, 4, 6) or 400 μM etoposide (lane 7). After 18 hours cells were lysed and analysed for PARP cleavage by Western blotting with an anti-PARP antibody. Full length PARP is labelled and the lower arrow indicates the major caspase cleavage fragment.

ERKs = experiment: ERK phosphorylation (Western blotting); conditions: for activation of ERKs by TPA (phosphorylation of ERK½): BR293 cells; for activation of ERKs in response to serum: result not shown
Method: ERKs are unaffected by OdDHL (a) BR293 cells were serum-starved (lane 1) or starved and stimulated with TPA for 30 min alone (lane 2) or in the presence of increasing concentrations of OdDHL (lanes 3-6) or 100 μM OHHL (lane 7). Cell lysates were prepared and analysed by Western blotting for ERK phosphorylation with an antibody specific for phospho-ERK½ (upper panel) and for ERK content with an antibody against ERKs (lower panel). (b) BR293 cells were serum-starved (lane 1) or starved and stimulated with Anisomycin for 30 min alone (lane 2) or in the presence of increasing concentrations of OdDHL (lanes 3-6) or 100 μM OHHL (lane 7). Cell lysates were prepared and analysed by Western blotting for JNK/SAPK phosphorylation with an antibody specific for phospho-JNKs (upper panel) and for SAPK/JNK content with an antibody against JNKs (lower panel). (c) BR293 cells were treated as described in (b) and lysates were analysed by Western blotting for p38^MAPK phosphorylation with an antibody specific for phospho-p38 (upper panel) and for p38 content with an antibody against p38 (lower panel).

Akt/PKB = Akt/PKB S473 phosphorylation in serum-stimulated cells (P13K survival pathway); conditions: for Akt/PKB phosphorylation in serum-stimulated cells: BR293, MCF-7 and MDA-MB-468 cells, Wortmannin 200 nM, AHLs 100 μM
Method: Cell lysates were then prepared and analysed by Western blotting for Akt/PKB phosphorylation with an antibody specific for Akt/PKB phosphorylated on S473 (p-Akt, upper panel) and subsequently for total Akt/PKB content with an antibody for Akt/PKB (lower panel).
In the bottom section of FIG. 21, BR293 cells were serum-starved (lane 1) or starved and stimulated with 10% FCS for 2 hours alone (lane 2) or in the presence of increasing concentrations of OdDHL (lanes 3-6) or 100 μM OHHL (lane 7) or 200 nM Wortmannin (lane 8). Cell lysates were prepared and analysed by Western blotting for Akt/PKB phosphorylation with an antibody specific for Akt/PKB phosphorylated on S473 (upper panel) and subsequently for total Alt/PKB content with an antibody for Akt/PKB (lower panel).

STAT1 and 3 = experiment: STAT complex formation in serum-starved cells treated with AHL alone (EMSA); conditions: serum-starved BR293 cells; up to 2 h
Description: Cells were lysed and the DNA-binding activity of STAT1 and 3 was examined by EMSA.

CCCC(=O)CC(=O)N[C@H]1CCOC1=O [OHHL, N-(3-oxohexanoyl)-L-homoserine lactone, reference compound]
growth of cultured cells (confluence) (BR293 cells [1]): reached confluence in 48 hours | nuclear morphology / viability after DAPI staining (BR293 cells [2]): remained viable | nuclear integrity by DAPI staining (MDA-MB-468 cells): unaffected | activation of ERKs by TPA (phosphorylation of ERK½) (ERKs): Neither OdDHL nor OHHL had any effect | activation of ERKs in response to serum (ERKs): Neither OdDHL nor OHHL had any effect | Akt/PKB phosphorylation in serum-stimulated cells (Akt/PKB): had no effect | STAT complex formation by AHL alone (STAT1 and 3): did not induce STAT complex formation

CCCCCCCCCC(=O)CC(=O)N[C@H]1CCOC1=O [OdDHL, N-(3-oxo-dodecanoyl)-L-homoserine lactone]
growth of cultured cells (confluence) (BR293 cells [1]): grew poorly or not at all | inhibition of proliferation (BR293 cells [1]; over a 48-hour period): 70%-80% | nuclear morphology / viability after DAPI staining (BR293 cells [2]): induced DNA condensation and nuclear fragmentation | nuclear integrity by DAPI staining (MDA-MB-468 cells): nuclear disruption | activation of ERKs by TPA (phosphorylation of ERK½) (ERKs): Neither OdDHL nor OHHL had any effect | activation of ERKs in response to serum (ERKs): Neither OdDHL nor OHHL had any effect | Akt/PKB phosphorylation in serum-stimulated cells (Akt/PKB): blocked phosphorylation of Akt/PKB to a similar degree as Wortmannin | effective concentration for blocking Akt/PKB phosphorylation (Akt/PKB; titration in BR293 cells): above 50 μM | STAT complex formation by AHL alone (STAT1 and 3): did not induce STAT complex formation
